Assay results from patent US9050344B2, “Therapeutic compounds” (Gilead Sciences, Inc., priority 2013, dated 2015).

Experiments:
[1] = Test B: Cytotoxicity Assay (protocol of Test A, uninfected cells); assay type: cell-based; settings: human, uninfected MT-4 cells, CellTiter-Glo
Experimental: Test B: Cytotoxicity Assay Compound cytotoxicity and the corresponding CC50 values was determined using the same protocol as described in the antiviral assay (Test A) except that uninfected cells were used.

HIV-IIIb = assay: Test A: Antiviral Assay in MT4 Cells; assay type: cell-based, HIV-1; settings: Human immunodeficiency virus 1, IIIB, MT4, 120 h, read-out: % inhibition at 3 μM
Experimental: Test A: Antiviral Assay in MT4 Cells
For the antiviral assay, 40 μL of 1× test concentration of 3-fold serially diluted compound in culture medium with 10% FBS was added to each well of a 384-well plate (10 concentrations) in quadruplicate. MT-4 cells were next mixed with HIV-IIIb at an m.o.i of 0.003 for 1 hour, after which time 35 μL of virus/cell mixture (2000 cells) was immediately added to each well containing 40 μL of diluted compound. The plates were then incubated at 37° C. for 5 days. After 5 days of incubation, 25 μl of 2× concentrated CellTiter-Glo™ Reagent (catalog #G7571, Promega Biosciences, Inc., Madison, Wis.) was added to each well containing MT-4 cells. Cell lysis was carried out by incubating at room temperature for 10 min and then chemiluminescence was read.

NC(=O)c1cc(-c2cc(N3C(=O)c4ccccc4C3=O)cnc2[C@H](Cc2cc(F)cc(F)c2)NC(=O)Cn2nc(C(F)(F)F)c3c2C(F)(F)[C@@H]2C[C@H]32)ccc1F [Compound 30K, 5-(2-((S)-1-(2-((3bS,4aR)-5,5-difluoro-3-(trifluoromethyl)-3b,4,4a,5-tetrahydro-1H-cyclopropa[3,4]cyclopenta[1,2-c]pyrazol-1-yl)acetamido)-2-(3,5-difluorophenyl)ethyl)-5-(1,3-dioxoisoindolin-2-yl)pyridin-3-yl)-2-fluorobenzamide]
CC50 at 5 days [1]: > 53.2 µM
inhibition at 3 µM (HIV-IIIb): 48%

NC(=O)c1cc(-c2cc(N)cnc2[C@H](Cc2cc(F)cc(F)c2)NC(=O)Cn2nc(C(F)(F)F)c3c2C(F)(F)[C@@H]2C[C@H]32)ccc1F [Compound 31, 5-(5-amino-2-((S)-1-(2-((3bS,4aR)-5,5-difluoro-3-(trifluoromethyl)-3b,4,4a,5-tetrahydro-1H-cyclopropa[3,4]cyclopenta[1,2-c]pyrazol-1-yl)acetamido)-2-(3,5-difluorophenyl)ethyl)pyridin-3-yl)-2-fluorobenzamide]
CC50 at 5 days [1]: 19.5 µM
inhibition at 3 µM (HIV-IIIb): 96%

NC(=O)c1cc(-c2cc(N3C(=O)c4ccccc4C3=O)cnc2[C@H](Cc2cc(F)cc(F)c2)NC(=O)Cn2nc(C(F)F)c3c2C(F)(F)CCC3(F)F)ccc1F [Compound 32, (S)-5-(2-(1-(2-(3-(difluoromethyl)-4,4,7,7-tetrafluoro-4,5,6,7-tetrahydro-1H-indazol-1-yl)acetamido)-2-(3,5-difluorophenyl)ethyl)-5-(1,3-dioxoisoindolin-2-yl)pyridin-3-yl)-2-fluorobenzamide]
CC50 at 5 days [1]: > 53.2 µM
inhibition at 3 µM (HIV-IIIb): 37%

NC(=O)c1cc(-c2cc(N)cnc2[C@H](Cc2cc(F)cc(F)c2)NC(=O)Cn2nc(C(F)F)c3c2C(F)(F)CCC3(F)F)ccc1F [Compound 33, (S)-5-(5-amino-2-(1-(2-(3-(difluoromethyl)-4,4,7,7-tetrafluoro-4,5,6,7-tetrahydro-1H-indazol-1-yl)acetamido)-2-(3,5-difluorophenyl)ethyl)pyridin-3-yl)-2-fluorobenzamide]
CC50 at 5 days [1]: 13.3 µM
inhibition at 3 µM (HIV-IIIb): 85%

Cc1c(-c2cc(N)cnc2[C@H](Cc2cc(F)cc(F)c2)NC(=O)Cn2nc(C(F)(F)F)c3c2C(F)(F)[C@@H]2C[C@H]32)ccc2n[nH]c(=O)n12 [Compound 34, N—((S)-1-(5-amino-3-(5-methyl-3-oxo-2,3-dihydro-[1,2,4]triazolo[4,3-a]pyridin-6-yl)pyridin-2-yl)-2-(3,5-difluorophenyl)ethyl)-2-((3bS,4aR)-5,5-difluoro-3-(trifluoromethyl)-3b,4,4a,5-tetrahydro-1H-cyclopropa[3,4]cyclopenta[1,2-c]pyrazol-1-yl)acetamide]
CC50 at 5 days [1]: 22.4 µM
inhibition at 3 µM (HIV-IIIb): 89%

Cn1nc(NS(C)(=O)=O)c2cccc(-c3cc(N)cnc3[C@H](Cc3cc(F)cc(F)c3)NC(=O)Cn3nc(C(F)(F)F)c4c3C(F)(F)[C@@H]3C[C@H]43)c21 [Compound 35, N—((S)-1-(5-amino-3-(1-methyl-3-(methylsulfonamido)-1H-indazol-7-yl)pyridin-2-yl)-2-(3,5-difluorophenyl)ethyl)-2-((3bS,4aR)-5,5-difluoro-3-(trifluoromethyl)-3b,4,4a,5-tetrahydro-1H-cyclopropa[3,4]cyclopenta[1,2-c]pyrazol-1-yl)acetamide]
CC50 at 5 days [1]: 23.9 µM
inhibition at 3 µM (HIV-IIIb): 93%

Cn1nc(NS(C)(=O)=O)c2cccc(-c3cnc(N4CC(C)(O)C4)nc3[C@H](Cc3cc(F)cc(F)c3)NC(=O)Cn3nc(C(F)(F)F)c4c3C(F)(F)[C@@H]3C[C@H]43)c21 [Compound 36C, 2-((3bS,4aR)-5,5-difluoro-3-(trifluoromethyl)-3b,4,4a,5-tetrahydro-1H-cyclopropa[3,4]cyclopenta[1,2-c]pyrazol-1-yl)-N—((S)-2-(3,5-difluorophenyl)-1-(2-(3-hydroxy-3-methylazetidin-1-yl)-5-(1-methyl-3-(methylsulfonamido)-1H-indazol-7-yl)pyrimidin-4-yl)ethyl)acetamide]
CC50 at 5 days [1]: 32.2 µM
inhibition at 3 µM (HIV-IIIb): 94%

Cn1nc(NS(C)(=O)=O)c2cccc(-c3cnc(N4CC5(COC5)C4)nc3[C@H](Cc3cc(F)cc(F)c3)NC(=O)Cn3nc(C(F)(F)F)c4c3C(F)(F)[C@@H]3C[C@H]43)c21 [Compound 37, 2-((3bS,4aR)-5,5-difluoro-3-(trifluoromethyl)-3b,4,4a,5-tetrahydro-1H-cyclopropa[3,4]cyclopenta[1,2-c]pyrazol-1-yl)-N—((S)-2-(3,5-difluorophenyl)-1-(5-(1-methyl-3-(methylsulfonamido)-1H-indazol-7-yl)-2-(2-oxa-6-azaspiro[3.3]heptan-6-yl)pyrimidin-4-yl)ethyl)acetamide]
CC50 at 5 days [1]: 34 µM
inhibition at 3 µM (HIV-IIIb): 95%

CC(=O)Nc1cnc([C@H](Cc2cc(F)cc(F)c2)NC(=O)Cn2nc(C(F)(F)F)c3c2C(F)(F)[C@@H]2C[C@H]32)c(-c2cccc3c(N(C(C)=O)S(C)(=O)=O)nn(C)c23)c1 [Compound 38B]
CC50 at 5 days [1]: 40.8 µM
inhibition at 3 µM (HIV-IIIb): 98%

CC(=O)Nc1cnc([C@H](Cc2cc(F)cc(F)c2)NC(=O)Cn2nc(C(F)(F)F)c3c2C(F)(F)[C@@H]2C[C@H]32)c(-c2cccc3c(NS(C)(=O)=O)nn(C)c23)c1 [Compound 39, N—((S)-1-(5-acetamido-3-(1-methyl-3-(methylsulfonamido)-1H-indazol-7-yl)pyridin-2-yl)-2-(3,5-difluorophenyl)ethyl)-2-((3bS,4aR)-5,5-difluoro-3-(trifluoromethyl)-3b,4,4a,5-tetrahydro-1H-cyclopropa[3,4]cyclopenta[1,2-c]pyrazol-1-yl)acetamide]
CC50 at 5 days [1]: 29.6 µM
inhibition at 3 µM (HIV-IIIb): 92%

Cc1c(-c2cc(NC(=O)C(F)(F)F)cnc2[C@H](Cc2cc(F)cc(F)c2)NC(=O)Cn2nc(C(F)(F)F)c3c2C(F)(F)[C@@H]2C[C@H]32)ccc2n[nH]c(=O)n12 [Compound 40, N-(6-((S)-1-(2-((3bS,4aR)-5,5-difluoro-3-(trifluoromethyl)-3b,4,4a,5-tetrahydro-1H-cyclopropa[3,4]cyclopenta[1,2-c]pyrazol-1-yl)acetamido)-2-(3,5-difluorophenyl)ethyl)-5-(5-methyl-3-oxo-2,3-dihydro-[1,2,4]triazolo[4,3-a]pyridin-6-yl)pyridin-3-yl)-2,2,2-trifluoroacetamide]
CC50 at 5 days [1]: 24.1 µM
inhibition at 3 µM (HIV-IIIb): 96%

Cc1c(-c2cc(NS(C)(=O)=O)cnc2[C@H](Cc2cc(F)cc(F)c2)NC(=O)Cn2nc(C(F)(F)F)c3c2C(F)(F)[C@@H]2C[C@H]32)ccc2n[nH]c(=O)n12 [Compound 41E, 2-((3bS,4aR)-5,5-difluoro-3-(trifluoromethyl)-3b,4,4a,5-tetrahydro-1H-cyclopropa[3,4]cyclopenta[1,2-c]pyrazol-1-yl)-N—((S)-2-(3,5-difluorophenyl)-1-(3-(5-methyl-3-oxo-2,3-dihydro-[1,2,4]triazolo[4,3-a]pyridin-6-yl)-5-(methylsulfonamido)pyridin-2-yl)ethyl)acetamide]
CC50 at 5 days [1]: > 50 µM
inhibition at 3 µM (HIV-IIIb): 91%

Cn1nc(NS(C)(=O)=O)c2cccc(-c3ccc(N4CC(C)(O)C4)nc3[C@H](Cc3cc(F)cc(F)c3)NC(=O)Cn3nc(C(F)F)c4c3C(F)(F)[C@@H]3C[C@H]43)c21 [Compound 42K, 2-((3bS,4aR)-3-(difluoromethyl)-5,5-difluoro-3b,4,4a,5-tetrahydro-1H-cyclopropa[3,4]cyclopenta[1,2-c]pyrazol-1-yl)-N—((S)-2-(3,5-difluorophenyl)-1-(6-(3-hydroxy-3-methylazetidin-1-yl)-3-(1-methyl-3-(methylsulfonamido)-1H-indazol-7-yl)pyridin-2-yl)ethyl)acetamide]
CC50 at 5 days [1]: 18.9 µM
inhibition at 3 µM (HIV-IIIb): 92%

Cn1nc(NS(C)(=O)=O)c2cccc(-c3ccc(N4CC(N)CC4=O)nc3[C@H](Cc3cc(F)cc(F)c3)NC(=O)Cn3nc(C(F)(F)F)c4c3C(F)(F)[C@@H]3C[C@H]43)c21 (stereo partly drawn) [Compound 43B, N-((1S)-1-(6-(4-amino-2-oxopyrrolidin-1-yl)-3-(1-methyl-3-(methylsulfonamido)-1H-indazol-7-yl)pyridin-2-yl)-2-(3,5-difluorophenyl)ethyl)-2-((3bS,4aR)-5,5-difluoro-3-(trifluoromethyl)-3b,4,4a,5-tetrahydro-1H-cyclopropa[3,4]cyclopenta[1,2-c]pyrazol-1-yl)acetamide]
CC50 at 5 days [1]: 16.9 µM
inhibition at 3 µM (HIV-IIIb): 83%

Cc1nc([C@H](Cc2cc(F)cc(F)c2)NC(=O)Cn2nc(C(F)F)c3c2C(F)(F)[C@@H]2C[C@H]32)c(-c2cccc3c(NS(C)(=O)=O)nn(C)c23)cc1N [Compound 44, N—((S)-1-(5-amino-6-methyl-3-(1-methyl-3-(methylsulfonamido)-1H-indazol-7-yl)pyridin-2-yl)-2-(3,5-difluorophenyl)ethyl)-2-((3bS,4aR)-3-(difluoromethyl)-5,5-difluoro-3b,4,4a,5-tetrahydro-1H-cyclopropa[3,4]cyclopenta[1,2-c]pyrazol-1-yl)acetamide]
CC50 at 5 days [1]: 32 µM
inhibition at 3 µM (HIV-IIIb): 107%
